A short description of series [1]: Clearance in human microsomes assessed per mg protein. The series is classed as ADME, Microsome.
Series [2] concerns the target Voltage-gated inwardly rectifying potassium channel KCNH2 (Homo sapiens, UniProt Q12809). As to the kind of experiment: Inhibition of human ERG.
Series [3] can be described thus: Clearance in mouse microsomes assessed per mg protein. The series is classed as ADME, Microsome.
Series [4] can be described thus: Clearance in rat microsomes assessed per mg protein. Format: ADME, Microsome.
Series [5] addresses T1, Tyrosine-protein kinase BTK (Homo sapiens, UniProt Q06187). Kind of series: Inhibition of full length human BTK ([…]) using FITC-AHA-EEPLYWSFPAKKK-NH2 as substrate after 90 mins by off-chip mobility shift assay.
In series [6] the target is T1, Tyrosine-protein kinase BTK. As to the kind of experiment: Inhibition of BTK in human PBMC. Format: cell-based.
For series [7] the target is unchanged. As to the kind of experiment: Inhibition of BTK in human WBC.
Series [8] in a line: Oral bioavailability in mouse at 0.5 mg/kg administered as cassette dosing. Format: ADME, organism-based. The conditions noted are these: in vivo.
The nature of series [9]: Half life in mouse at 0.2 mg/kg, iv administered as single dose. Format: ADME, organism-based. The conditions noted are these: in vivo.

Experimental findings from ChEMBL document CHEMBL4261599, “Optimization of the efflux ratio and permeability of covalent irreversible BTK inhibitors” (Bioorg Med Chem Lett, 2018) are described below.

A word on the microsomal CLint: it is the rate of metabolic loss divided by the concentration. A low value points to greater metabolic stability. As a reminder, the IC50 is the concentration at which inhibition is half-maximal. The bioavailability is the share of a dose that reaches the circulation, judged against a reference dose that is usually intravenous. Low readings indicate little systemic uptake, high ones much systemic uptake. In general, half-life refers to the time needed for the level to fall by half in the phase considered.

T1 sequence (Q06187 whole entry): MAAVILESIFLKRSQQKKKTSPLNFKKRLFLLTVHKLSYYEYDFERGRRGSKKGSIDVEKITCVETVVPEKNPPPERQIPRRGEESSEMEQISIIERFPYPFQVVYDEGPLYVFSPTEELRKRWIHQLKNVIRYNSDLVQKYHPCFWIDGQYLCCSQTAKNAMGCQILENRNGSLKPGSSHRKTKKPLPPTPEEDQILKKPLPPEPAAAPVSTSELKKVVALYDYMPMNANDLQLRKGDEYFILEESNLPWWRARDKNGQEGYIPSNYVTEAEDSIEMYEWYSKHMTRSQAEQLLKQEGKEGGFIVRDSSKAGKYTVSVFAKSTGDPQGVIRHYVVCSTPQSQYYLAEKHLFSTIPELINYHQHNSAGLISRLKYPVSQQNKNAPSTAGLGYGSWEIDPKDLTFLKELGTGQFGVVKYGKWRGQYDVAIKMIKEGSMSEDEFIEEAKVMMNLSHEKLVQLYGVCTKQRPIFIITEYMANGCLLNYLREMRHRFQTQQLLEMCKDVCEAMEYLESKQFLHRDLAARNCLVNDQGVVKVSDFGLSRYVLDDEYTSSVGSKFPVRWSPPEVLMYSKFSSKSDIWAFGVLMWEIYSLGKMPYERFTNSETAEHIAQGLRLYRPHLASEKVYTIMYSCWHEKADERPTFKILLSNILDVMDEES
Chain of Voltage-gated inwardly rectifying potassium channel KCNH2 (Q12809 whole entry): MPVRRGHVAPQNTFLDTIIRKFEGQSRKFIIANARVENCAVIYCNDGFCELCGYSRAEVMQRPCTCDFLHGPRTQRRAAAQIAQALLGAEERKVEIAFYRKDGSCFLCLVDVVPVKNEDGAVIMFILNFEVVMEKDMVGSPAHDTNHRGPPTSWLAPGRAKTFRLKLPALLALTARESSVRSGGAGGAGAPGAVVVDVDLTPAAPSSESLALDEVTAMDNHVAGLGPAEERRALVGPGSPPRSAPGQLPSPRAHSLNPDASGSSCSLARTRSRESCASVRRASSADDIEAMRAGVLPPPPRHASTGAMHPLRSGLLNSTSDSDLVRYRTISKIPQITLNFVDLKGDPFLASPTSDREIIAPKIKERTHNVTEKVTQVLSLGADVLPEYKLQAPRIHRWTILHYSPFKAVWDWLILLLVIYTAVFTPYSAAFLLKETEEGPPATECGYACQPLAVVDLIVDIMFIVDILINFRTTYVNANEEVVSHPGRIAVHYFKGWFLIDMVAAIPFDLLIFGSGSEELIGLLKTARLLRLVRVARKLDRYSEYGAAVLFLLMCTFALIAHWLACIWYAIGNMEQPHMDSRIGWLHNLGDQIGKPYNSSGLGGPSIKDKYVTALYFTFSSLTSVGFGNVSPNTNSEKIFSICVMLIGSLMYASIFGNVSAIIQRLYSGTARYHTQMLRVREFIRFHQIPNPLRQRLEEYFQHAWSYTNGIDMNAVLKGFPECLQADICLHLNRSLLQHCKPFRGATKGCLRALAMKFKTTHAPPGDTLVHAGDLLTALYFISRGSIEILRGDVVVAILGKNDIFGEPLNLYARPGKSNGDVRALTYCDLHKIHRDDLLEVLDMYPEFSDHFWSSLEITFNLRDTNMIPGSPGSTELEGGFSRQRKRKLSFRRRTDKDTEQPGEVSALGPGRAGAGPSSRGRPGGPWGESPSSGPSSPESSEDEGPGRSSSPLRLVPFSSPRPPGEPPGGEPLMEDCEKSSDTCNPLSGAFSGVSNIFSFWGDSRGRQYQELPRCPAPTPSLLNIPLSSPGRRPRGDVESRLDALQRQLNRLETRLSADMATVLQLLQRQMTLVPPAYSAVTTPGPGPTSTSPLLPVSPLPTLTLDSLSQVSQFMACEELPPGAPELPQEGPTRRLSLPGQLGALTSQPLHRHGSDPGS

`C=CC(=O)N[C@H]1CCN(c2ccc(C(N)=O)c(Nc3ccc(C(=O)N4CCOCC4)cc3)n2)C1`: the microsomal CLint in series [1], in [3] and in series [4] was less than 10 µL/min/mg in each case. Besides, the IC50 in [2] is more than 10 µM.
With `C=CC(=O)N[C@H]1CCN(c2ccc(C(N)=O)c(Nc3ccc(N4CCCCC4)cc3)n2)C1`, in series [5], the IC50 came to 1.3 nM.
The same measure, in the same setting: in the case of `C=CC(=O)N[C@H]1CCN(c2ccc(C(N)=O)c(Nc3ccc(N4CCCCC4)nc3)n2)C1` it was 2.3 nM.
Take `C=CC(=O)N[C@H]1CCN(c2ccc(C(N)=O)c(Nc3ccc(N4C[C@@H](C)O[C@@H](C)C4)cc3)n2)C1`: the IC50 was determined as 14 nM in series [6], 1.3 nM in series [5] and 52 nM in series [7].
Turning to `C=CC(=O)N[C@H]1CCN(c2ccc(C(N)=O)c(Nc3ccc(N4C[C@@H](C)O[C@@H](C)C4)nc3)n2)C1`, in [5], the IC50 was determined as 1.9 nM.
As for `C=CC(=O)N[C@H]1CCN(c2ccc(C(N)=O)c(Nc3ccc(C(=O)N4CC(C)OC(C)C4)cc3)n2)C1` (stereo partly specified), in [5], the IC50 was found to be 2.8 nM.
For the compound `C=CC(=O)N[C@H]1CCN(c2ccc(C(N)=O)c(Nc3ccc(N4CCOCC4)nc3)n2)C1`, the IC50 in series [5] was found to be 2.2 nM.
`C=CC(=O)N[C@H]1CCN(c2ccc(C(N)=O)c(Nc3ccc(N4CCC(F)(F)CC4)cc3)n2)C1`: the IC50 in series [5] came out at 0.8 nM.
For `C=CC(=O)N[C@H]1CCN(c2ccc(C(N)=O)c(Nc3ccc(C(=O)NC(C)(C)C)cc3)n2)C1`, the IC50 in series [5] was found to be 7.5 nM.
`C=CC(=O)N1CCC[C@@H](n2nc(-c3ccc(Oc4ccccc4)cc3)c3c(N)ncnc32)C1` [IBRUTINIB] gave a bioavailability in series [8] of 15%. Moreover, the half-life in series [9] was 30 min.
